One test deals with WT HCT116 cells. As to the kind of experiment: Apoptosis detection by flow cytometry (Annexin V/PI), WT HCT116 cells. In kind it is cell-based, human. The method, then: (§1) HCT116 cells treated with indicated compounds were digested with 0.25% trypsin (Gibco). The cells were harvested by centrifugation at 1000 rpm for 5 min. The trypsinization time should not be too long to prevent false positives. The cells were washed twice with pre-cooled PBS. The cells were resuspended with 1 × annexin-binding buffer and the cell density was adjusted to ~ 1 × 10^6 cells/ml. Then 5µL Alexa Fluor 488 annexin V and 1 µL 100 µg/mL PI working solution (V13241, Invitrogen) was added to each 100 µL cell suspension. The cells were incubated at room temperature in the dark for 15 min. After the incubation, 400 µL 1 × annexin-binding buffer was added to the cells, mixed gently, and kept the samples on ice. Analyze the stained cells by flow cytometry as soon as possible. The V-FITC positive and PI negative cells were recorded as apoptotic cells.
For orientation: Flow cytometry measures light scatter and fluorescence of single cells or particles in a stream.

Another test deals with FHIT KO HCT116 cells. As to the kind of experiment: Apoptosis detection by flow cytometry (Annexin V/PI), FHIT KO HCT116 cells. In kind it is cell-based, human. The conditions noted are these: for apoptosis: KO cells.
From the text: FHIT gene was deleted in HCT116 cells by CRISPR/Cas9 genome editing. A plasmid pL- CRISPR.EFS.GFP (#57,818, Addgene) encoding both the Cas9 protein and the sgRNA was used. The Cas9 sequence is coupled to a P2A site and EGFP. Expression of the Cas9 protein results in simultaneous expression of EGFP, allowing for the selection of positively transfected cells. Two sgRNA toward exon5 and exon6 of the FHIT gene, respectively, were designed by using the optimized CRISPR design online tool (http://crispr.cos.uni-heidelberg.de). The primers sequences of the sgRNA used were shown as below: sgRNA1 for exon5 forward, 5’[…]3’, reverse, 5’[…] GGACAC3’; sgRNA2 for exon6 forward, 5’[…]3’, reverse, 5’[…]3’. Plasmids containing the right insertion were then sequenced by Sangon Biotech Company (Shanghai, China). The two CRISPR/Cas9 plasmids were co-transfected into HCT116 cells as 1:1 using Lipofectamine3000 (Invitrogen). After 48 h, EGFP positive single cell was sorted into 96-well plates and the plates were left in the incubator for 7–14 days or until small colonies could be seen by the naked eye. Genomic DNA of each well was extracted by QuickExtract DNA Extraction Solution (Epicenter, Madison, WI) to do PCR identification. And the PCR products were then Sanger-sequenced to identify clones that would result in frameshifts and truncated protein products. Sequence alignment and genomic PCR primers were shown as below: forward, 5′[…]3′, revers, 5′[…]3′.
as §1, with “The cells were incubated at room temperature in the dark for 15 min. After the incubation, 400 µL 1 × annexin-binding buffer was added to the cells, mixed gently, and kept the samples on ice. Analyze the stained cells by flow cytometry as soon as possible.” left out

In test [1] the target is T1, FHIT (Homo sapiens, UniProt P49789).
T1 construct: GST (N, cleaved yes); made in house; host or cells: E. coli BL21 (DE3)
T1 sequence (P49789 whole entry): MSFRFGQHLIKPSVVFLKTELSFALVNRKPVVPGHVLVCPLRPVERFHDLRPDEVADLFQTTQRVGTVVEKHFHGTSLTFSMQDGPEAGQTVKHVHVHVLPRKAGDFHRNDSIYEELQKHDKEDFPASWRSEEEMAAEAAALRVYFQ
As to the kind of experiment: FHIT hydrolase activity detection assay (Ap3A, ADP-Glo). Type of test: biochemical. The conditions noted are these: 5 nM FHIT, 500 nM Ap3A, ADP production by ADP-Glo. As to the method:
5 nM FHIT protein was mixed with series diluted compounds as indicated in assay buffer (20 mM Tris–HCl, 2 mM DTT, 5 mM MgCl2, pH7.5) in a final DMSO concentration of 1% in a total volume of 20 μL. The mixtures were incubated for 30 min at 25 °C, then 500 nM Ap3A was added. After incubation at 25 °C for 5 min, the production of ADP in the reaction system was detected by ADP-Glo reagent (V6930, Promega) according to the manufacturer’s protocol in 384-well. Luminescence was read by spark (TECAN), an integration time of 1 s per well. And the data were analyzed by GraphPad Prism 7.0.
(In general: ADP-Glo turns the ADP formed in a reaction into a luminescent signal.)

The target of the next test is T2, FHIT (H96N) (Homo sapiens, UniProt P49789, H96N).
T2 construct: GST (N, cleaved yes); made in house; host or cells: E. coli BL21 (DE3)
T2 sequence (P49789 whole entry H96N): as the sequence (P49789 whole entry) above, with H96N counted along it
As to the kind of experiment: Fluorescence polarization assay, FHIT H96N-ApppBODIPY binding inhibition. Particulars: 5 µM FHIT (H96N), 1 µM ApppBODIPY. The method, then:
The binding of FHIT (H96N) to fluorescein-labeled substrates ApppBODIPY was analyzed by fluorescence polarization assay in 384-well format for dose–response curve studies using spark instrument (TECAN) according to the protocol reported before. And 5 µM FHIT (H96N) protein was incubated with 1 µM fluorescein-labeled substrates in buffer A (25 mM Tris–HCl, pH 7.5, 5 mM MgCl2 and 2 mM DTT) with series diluted inhibitors as indicated. Each sample was allowed to equilibrate in the solution for 30 min. After 30 min, the steady-state fluorescence anisotropy (mP) was measured. A second reading was taken after 10 min, to ensure that the mixture was well-equilibrated and stable. Less than 5% change was observed between 30 and 40 min measurements. The IC50 value was determined by fitting the binding curves using GraphPad Prism 7.0.
For orientation: Polarisation of emitted light reports the rotation of a fluorescent probe.

Test [2] deals with T1, FHIT. As to the kind of experiment: MST assay of the binding between tanshinone compounds and FHIT. Particulars: Fig. 4B, FHIT preparation not stated. As to the method:
Ten million 293 cells overexpressing GFP-tagged FHIT or free GFP were lysed in 0.5 mL M-PER mammalian protein extraction reagent (Thermo Fisher Scientific). Cell lysates were diluted in PBS buffer to a final concentration at which the fluorescent signals of the GFP proteins were suitable for the detection of the Monolith NT.115 instrument (NanoTemper Technologies). A single point screening assay was developed against GFP-FHIT protein to find potential binding molecules from compound libraries (L1021,APExBIO). For binding affinity detection, a 10µL protein sample was mixed with 10µL ligand at various concentrations as indicated. And the purified proteins were labeled by Red- NHS kit in accordance with the manufacturer’s protocol (MO-L011, NanoTemper Technologies). Then the mixture solutions were loaded into NT.115 standard coated capillaries or premium coated capillaries (NanoTemper Technologies), and the MST measurements were performed at 25 °C. The fluorescence signal during the thermophoresis was monitored and the change in fluorescence was analyzed by software. The Kd was calculated by fitting a standard binding curve to the series diluted ligands. And data were analyzed by GraphPad Prism 7.0.

Test [3] concerns the target T1, FHIT. As to the kind of experiment: Fluorescent thin layer enzyme assay with ApppBODIPY (FHIT). In kind it is biochemical. Particulars: 10 nM Fhit, 5 µM ApppBODIPY, TLC; read-out: IC50, FHIT hydrolase activity (TLC assay). The method, then: Fluorescent substrates ApppBODIPY at 5 µM were incubated with purified Fhit protein 10 nM in reactions at 25 °C containing 20 mM Tris–HCl, pH7.5, 150 mM NaCl, and 5 mM MgCl2. Competitive compounds, when indicated at series concentrations, were mixed with a fluorescent substrate. Reaction samples (0.6µL) were spotted on silica TLC plates (MERCK) at 60–120 s intervals. Plates were air-dried and developed in 2-propanol:NH4OH:1,4-dioxane: H2O (50:35:8:7) as reported before. Developed plates were imaged by fluorescein blot (ChemiDoc, Bio-Rad).

Test [4] deals with HCT116 cells. Briefly: CCK-8 assay for cell inhibitory rate. In kind it is cell-based, human. Particulars: WT HCT116 cells, 2 µM. As to the method: The CCK-8 (Cell-Counting Kit-8) assay was used to detect the cells’inhibitory rate following the manufacturer’s protocol (APExBIO). Cells were seeded into 96-well plates at the density of 4 × 10^3(cells/well) overnight at 37 °C. After that, the culture medium was removed and the cells were treated with different concentrations of TSA (0, 1, 2, 5, 10 µM) or STS (0, 10, 25, 50, 100 µM) for 24 h, 48 h, 72 h respectively. Then 10 μL CCK-8 reagent was added into each well and incubated for another 2 h, OD450 was measured by a microplate reader (spark, TECAN).

Test [5] has as its system HCT116 cells. As to the kind of experiment: Colony formation assay. The conditions noted are these: 1 µM, 14 days. In kind it is cell-based, human. The method, then: ENPP1 hydrolase activity detection assay
ENPP1 protein (4ng/µl) was mixed with series diluted compounds as indicated in assay buffer (50mM Tris-HCl, 2mM CaCl2, 2mM MgCl2, pH9.0) in a final DMSO concentration of 1% in a total volume of 20μL. The mixtures were incubated for 30min at 25°C, then 4µM Ap3A was added. After incubation at 25°C for 10min, ENPP1 should be inactivated at 85°C for 5min.
Then the production of ADP in the reaction system was detected by ADP-Glo reagent (V6930, Promega) according to the manufacturer’s protocol in 384-well. Luminescence was read by spark (TECAN), an integration time of 1 second per well. And the data were analyzed by […]
Fluorescent thin layer enzyme assay for ENPP1
Small molecules, when indicated at series concentrations, were mixed with 2.5µM the fluorescent substrate ApppBODIPY. Then, 10nM purified ENPP1 protein was added to the reaction system at 25°C containing 50mM Tris-HCl pH9.0, 2mM CaCl2, 2mM MgCl2. Reaction samples (0.6µL) were spotted on silica TLC plates (Merck) at 60–120s intervals. Plates were air-dried and developed in 2-propanol:NH4OH:1,4-dioxane: H2O (50:35:8:7) as reported before. Developed plates were imaged by fluorescein blot (ChemiDoc, Bio-rad).
Colony formation assay was performed as described before. Briefly, ~200/well single cells were planted into 6-well plate. […]

The source of these data is article PMC8190080, “Tanshinones induce tumor cell apoptosis via directly targeting FHIT” (Scientific Reports, 2021).

In the case of `CC[C@@]1(O)C(=O)OCc2c1cc1n(c2=O)Cc2cc3ccccc3nc2-1` [CPT, camptothecin], the apoptosis in the test with WT HCT116 cells (1 µM) worked out at 24.9%; in the test with FHIT KO HCT116 cells (1 µM) it was 5.3%.
For orientation: IC50 means the concentration at which inhibition is half-maximal. On to `Cc1ccc(C(=O)Nc2ccc(S(=O)(=O)O)c3cc(S(=O)(=O)O)cc(S(=O)(=O)O)c23)cc1NC(=O)c1cccc(NC(=O)Nc2cccc(C(=O)Nc3cc(C(=O)Nc4ccc(S(=O)(=O)O)c5cc(S(=O)(=O)O)cc(S(=O)(=O)O)c45)ccc3C)c2)c1` [suramin], for which the IC50 against FHIT [1] stood at 260 ± 80 nM; at FHIT (H96N) it was 2600 ± 44 nM.
In general, Kd refers to a measure of binding affinity in units of concentration. A higher Kd goes with weaker binding. Turning to `Cc1coc2c1C(=O)C(=O)c1c-2ccc2c(C)cccc12` [TanI, tanshinone I], binding on FHIT [2] was put at a Kd of 466 ± 60 nM. Further, the IC50 on FHIT [3] is 4000 to 6000 nM. Besides, the values for the apoptosis with WT HCT116 cells (10 µM) and with FHIT KO HCT116 cells (10 µM) were 31.66% and 12.7%, respectively.
On FHIT [2], `C[C@H]1COC2=C1C(=O)C(=O)c1c2ccc2c1CCCC2(C)C` [CST, Cryptotanshinone] registered a Kd of 123 ± 31.7 nM. Besides, the IC50 on FHIT [3] was 4000 to 6000 nM.
With `Cc1coc2c1C(=O)C(=O)c1c-2ccc2c1CCCC2(C)C` [TSA, Tanshinone IIA], binding at FHIT [2] was characterised by a dissociation constant (Kd) of 112 ± 27.3 nM. The IC50 on FHIT [3] lay within 4000 to 6000 nM. Also, the “growth of HCT116 cells (CCK8)” value in the test with HCT116 cells [4] is on record as “significantly inhibits the growth”. Also, in the test on HCT116 cells [5], the “colony formation of HCT116 cells” value was “clearly abolished the colony formation”. The apoptosis rate was 13.5% in the test with WT HCT116 cells (5 µM, 24 h) and 4.9% in the test on FHIT KO HCT116 cells (FHIT KO cells, 5 µM, 24 h).
